Reference: ChEMBL document CHEMBL1201862, “PubChem BioAssay data set” (2004)
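Protocol summary: plate cells (96-well), add compound at 5 concentrations, incubate 48 h, interpolate endpoints linearly. GI50 is the concentration that inhibits growth by half.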 Activity calls are given as the source filed them. Rule as the data show it: active = GI50 up to about 1.1 µM and inactive = higher.

Key:
Experiment in all cases: DTP human tumour cell line panel, 48 h
[1] = test system: TK-10
[2] = test system: EKVX
[3] = test system: HCT-116
[4] = test system: OVCAR-4
[5] = test system: MOLT-4
[6] = test system: UACC-257
[7] = test system: SK-MEL-5
[8] = test system: SR
[9] = test system: SNB-19
[10] = test system: MDA-MB-435
[11] = test system: M14
[12] = test system: MCF7
[13] = test system: 786-0
[14] = test system: Malme-3M
[15] = test system: OVCAR-8
[16] = test system: NCI-H226
[17] = test system: A549
[18] = test system: SK-MEL-2
[19] = test system: RPMI-8226
[20] = test system: U-251

Row | Compound | GI50 [1] | GI50 [2] | GI50 [3] | GI50 [4] | GI50 [5] | GI50 [6] | GI50 [7] | GI50 [8] | GI50 [9] | GI50 [10] | GI50 [11] | GI50 [12] | GI50 [13] | GI50 [14] | GI50 [15] | GI50 [16] | GI50 [17] | GI50 [18] | GI50 [19] | GI50 [20]
1 | CCOC(=O)CC(=O)Nc1cccc2sc3ncccc3c(=O)c12 | 34.4 µM (inactive) | 65.8 µM (inactive) | 46 µM (inactive) | 83.2 µM (inactive) | 10 µM (inactive) | > 100 µM (inactive) | 5.37 µM (inactive) | 33.3 µM (inactive) | 51.3 µM (inactive) | 44.7 µM (inactive) | 87.1 µM (inactive) | 0.57 µM (active) | 35 µM (inactive) | 54.6 µM (inactive) | 52.4 µM (inactive) | 27.9 µM (inactive) | 18.4 µM (inactive) | 34.3 µM (inactive) | 35.6 µM (inactive) | 32.6 µM (inactive)
2 | CC(=O)c1c(O)nnc(-c2ccc(Cl)cc2)c1-c1ccc(Cl)cc1 | 62.4 µM (inactive) | 53.3 µM (inactive) | 58.2 µM (inactive) | 21.1 µM (inactive) | 48.5 µM (inactive) | 39 µM (inactive) | 29 µM (inactive) | 27.9 µM (inactive) | > 100 µM (inactive) | 29.9 µM (inactive) | 65.6 µM (inactive) | 32.1 µM (inactive) | 83.6 µM (inactive) | 28.5 µM (inactive) | 31.5 µM (inactive) | 31.3 µM (inactive) | 29.9 µM (inactive) | 25.1 µM (inactive) | 23.2 µM (inactive) | 51.9 µM (inactive)
3 | COC(=O)CC(c1cn(S(=O)(=O)c2ccc(C)cc2)c2ccccc12)C1C[C@@H](C(=O)OC)N(C(=O)OC(C)(C)C)C1=O (stereo not given in full) | > 100 µM (inactive) | > 100 µM (inactive) | 14.9 µM (inactive) | 55.3 µM (inactive) | 3.91 µM (inactive) | > 100 µM (inactive) | > 100 µM (inactive) | 3.08 µM (inactive) | > 100 µM (inactive) | 41 µM (inactive) | > 100 µM (inactive) | 33.5 µM (inactive) | 63.8 µM (inactive) | 83.4 µM (inactive) | 43.4 µM (inactive) | > 100 µM (inactive) | 27 µM (inactive) | 44.3 µM (inactive) | 8.77 µM (inactive) | 33.9 µM (inactive)
4 | CC(=O)N[C@@H](Cc1ccc(O)cn1)C(=O)NCc1ccc2c(c1)OCO2 | > 100 µM (inactive) | > 100 µM (inactive) | > 100 µM (inactive) | > 100 µM (inactive) | > 100 µM (inactive) | > 100 µM (inactive) | > 100 µM (inactive) | > 100 µM (inactive) | > 100 µM (inactive) | > 100 µM (inactive) | > 100 µM (inactive) | > 100 µM (inactive) | > 100 µM (inactive) | > 100 µM (inactive) | > 100 µM (inactive) | > 100 µM (inactive) | > 100 µM (inactive) | > 100 µM (inactive) | > 100 µM (inactive) | > 100 µM (inactive)
5 | COC(=O)[C@@H]1Cc2ccc(OC)c(c2)OCCC(=O)N1 | > 100 µM (inactive) | > 100 µM (inactive) | > 100 µM (inactive) | > 100 µM (inactive) | > 100 µM (inactive) | > 100 µM (inactive) | > 100 µM (inactive) | 32.6 µM (inactive) | > 100 µM (inactive) | > 100 µM (inactive) | > 100 µM (inactive) | > 100 µM (inactive) | > 100 µM (inactive) | > 100 µM (inactive) | > 100 µM (inactive) | > 100 µM (inactive) | > 100 µM (inactive) | > 100 µM (inactive) | > 100 µM (inactive) | > 100 µM (inactive)
6 | NC(=O)c1cc2cc(Cl)cc(Cl)c2o/c1=N\c1ccc(F)cc1 | 14.3 µM (inactive) | 15.2 µM (inactive) | 17.3 µM (inactive) | 23.8 µM (inactive) | 12.5 µM (inactive) | 19.5 µM (inactive) | 16.9 µM (inactive) | 4.08 µM (inactive) | 16.9 µM (inactive) | 20 µM (inactive) | 20.3 µM (inactive) | 19.8 µM (inactive) | 12.2 µM (inactive) | 21 µM (inactive) | 37.6 µM (inactive) | 18.6 µM (inactive) | 19.3 µM (inactive) | 16.3 µM (inactive) | 26.5 µM (inactive) | 19.6 µM (inactive)
7 | C/C(=C\CBr)CCC(Br)C(C)(C)Br (stereo not given) | > 100 µM (inactive) | > 100 µM (inactive) | > 100 µM (inactive) | > 100 µM (inactive) | > 100 µM (inactive) | > 100 µM (inactive) | > 100 µM (inactive) | > 100 µM (inactive) | > 100 µM (inactive) | > 100 µM (inactive) | > 100 µM (inactive) | > 100 µM (inactive) | > 100 µM (inactive) | > 100 µM (inactive) | > 100 µM (inactive) | > 100 µM (inactive) | > 100 µM (inactive) | > 100 µM (inactive) | > 100 µM (inactive) | > 100 µM (inactive)
8 | C=C1[C@H](OCC(C)C)[C@@H](O)[C@@H](OC(=O)c2cccnc2)C(C)(C)/C=C/[C@H](C)[C@H](OC(C)=O)[C@@]2(O)C[C@@](C)(OC(C)=O)[C@H](OC(=O)c3ccccc3)[C@@H]2[C@H]1OC(C)=O | 1.07 µM (active) | 1.04 µM (active) | 1.59 µM (inactive) | 1.9 µM (inactive) | 0.138 µM (active) | 2.9 µM (inactive) | 0.332 µM (active) | 1.16 µM (inactive) | 3.1 µM (inactive) | 0.167 µM (active) | 0.977 µM (active) | 1.8 µM (inactive) | 1.67 µM (inactive) | 0.187 µM (active) | 1.22 µM (inactive) | 1.39 µM (inactive) | 0.0459 µM (active) | > 2.13 µM (inactive) | 0.741 µM (active) | 1.34 µM (inactive)
9 | COC(=O)C(I(OS(=O)(=O)c1ccc(C)cc1)c1ccccc1)=P(c1ccccc1)(c1ccccc1)c1ccccc1 | 23.6 µM (inactive) | 23.7 µM (inactive) | 16.3 µM (inactive) | 13.7 µM (inactive) | 20.7 µM (inactive) | 17.9 µM (inactive) | 12.2 µM (inactive) | 19.4 µM (inactive) | 33.9 µM (inactive) | 18 µM (inactive) | 15.8 µM (inactive) | 30.3 µM (inactive) | 12.4 µM (inactive) | 7.94 µM (inactive) | 21.2 µM (inactive) | 8.39 µM (inactive) | 24.5 µM (inactive) | 18.2 µM (inactive) | 5.04 µM (inactive) | 20.7 µM (inactive)
